This is an account of results in patent publication US12251363B2, “Compositions to enhance a non-surgical medical treatment” (Anti-Plasmin Technologies, LLC, priority 2017, dated 2025).

The conditions of series [1]: oral administration; cited from earlier work.
In series [2] the test system is patients receiving hyaluronic acid dermal filler. Briefly: Non-surgical clinical use: tranexamic acid solution before and after injection of hyaluronic acid dermal filler, 318 patients. Format: in vivo, human. The note with it: 3% (w/v) tranexamic acid solution before and after filler injection. An excerpt: Three patients of the 318 reported instances of bruising or swelling.

The nature of series [3]: HPLC study of interaction of tranexamic acid with hyaluronic acid dermal filler (JUVEDERM). It counts as physicochemical. The note with it: freshly prepared 3% (w/v) tranexamic acid in filler; injected immediately vs after standing 20 min.
Procedure: (§1) Similar to the above-mentioned study, the JUVEDERM® analysis was carried out with fresh sample preparations being immediately injected for analysis as well as sample preparations that were allowed to stand for a 20 minute time period prior to injection.
The sample preparation was prepared as follows: 13 mg of filler (Source: JUVEDERM® Vollere XC) was weighed in a 2.5 mL vial and diluted to 1000 μt volume by adding an aqueous solution of 60:40 ratio, by volume, distilled water/acetonitrile.
The subject of series [4] is patients undergoing dermal filler procedures. Briefly: Bruising study: tranexamic acid solutions applied before and after dermal filler procedures, 48-hour observation. Format: in vivo, human.
Series [5] in a line: HPLC study to detect any binding interaction of tranexamic acid with hyaluronic acid polymer (ERACLEA product). It counts as physicochemical.
Procedure: First a skin care product from ERACLEA® Skin Care containing 1% (w/v) hyaluronic acid polymer and preservatives was tested. […] The analysis was carried out with fresh sample preparations being mixed and immediately injected into the HPLC system for analysis as well as sample preparations that were mixed and allowed to stand for a 20 minute time period prior to injection.
as §1
The sample preparation was prepared as follows: 10 mg of hyaluronic acid polymer (Source: ERACLEA®, pure hydration) was weighed in 2.5 mL of auto sampler vial and diluted to 1000 μt volume by adding an aqueous solution of 60:40 ratio, by volume, distilled water/acetonitrile and used as a standard stock solution.
The HPLC was conducted with a flow rate of 1 mL/min, a sample concentration of 10 mg/mL, and an injection volume of 10 μt, a wave length of 205 nm and a solvent system of 40:60 ratio, by volume, acetonitrile/distilled water.
Where [6] appears, read: 20% (w/v) tranexamic acid solution vs without.
The mark [7] stands for this setting: 20% (w/v) tranexamic acid solution, when bruising occurred.

In the case of `NC[C@H]1CC[C@H](C(=O)O)CC1` [tranexamic acid], the “fraction of the TA ingested that does not enter the blood” value in series [1] is given as “about half”. Besides, the “patients reported instances of bruising or swelling (count)” value in series [2] is recorded as “Three”. Also, the “patients reported instances of bruising and swelling” value in series [2] (318 patients, about 1 year) was “Less than 1%”. For the same compound, the “interaction between tranexamic acid and JUVEDERM filler” value in series [3] is on record as “no interaction”. Further, the “mild to no bruising combined, patients” value in series [4] (20% (w/v) tranexamic acid solution) is 82%. The “more patients experienced no bruising vs filler labeling” value in series [4] (20% (w/v) tranexamic acid solution vs labeling of JUVEDERM VOLLURE XC and VOLBELLA XC) is given as “about 28%”. The “improvement in bruising incidence” value in series [4] (20% (w/v) tranexamic acid solution vs other series, 48-hour observation) was “three-fold”. For the same compound, in series [4] (setting [6]), the “improvement in mild bruising” value is recorded as 80%, the “improvement in mild to no bruising combined” value is reported as 58% and the “improvement in severe bruising” value worked out at 100%. Further, the “patients experienced no bruising” value in series [4] (20% (w/v) tranexamic acid solution, 48-hour observation) was “Approximately 45%”. Also, in series [4] (setting [7]), the patients bruised severely entry is given as “no patients” and the “patients only bruised mildly” value amounted to 67%. In addition, the “patients experienced no bruising” value in series [4] (other series of patients (3%, 5%, 10% (w/v), and 3% plus home use for two days), 48-hour observation) is “about 15%”. For the same compound, the “interaction between tranexamic acid and hyaluronic acid polymer when mixed in solution” value in series [5] (3% (w/v) tranexamic acid in solution containing 1% (w/v) hyaluronic acid polymer, mixed several weeks prior to HPLC) is “no interaction”. Further, the “interaction between tranexamic acid and hyaluronic acid polymer” value in series [5] (freshly prepared 3% (w/v) tranexamic acid in hyaluronic acid polymer, injected immediately vs after standing 20 min) is on record as “no interaction”. Also, the “interaction between tranexamic acid and the hyaluronic acid in the ERACLEA product” value in series [5] (left in contact for several weeks (0.5% and 3% (w/v) tranexamic acid)) is recorded as “no interaction”.
